# Patent US9745581B2, “Methods of treating and diagnosing diseases using agents that regulate the alternative splicing pathway” (Yissum Research Development Company of the Hebrew …, priority 2012, dated 2017)
# “Also recorded” adds a separate entry of the source.
# How the values were obtained:
# Mnk1/2 [1] = experiment: Western blot of p38-MAPK phosphorylation in MEFs treated with Mnk1/2 kinase inhibitor; format: cell-based, mouse; details: CGP 57380 for 4 h, FIG. 5E
# From the text: (A) MCF-10A cells were transduced with the indicated retroviruses encoding for Mnk2 isoforms or Mnk2aKD. Total protein from stable pools was extracted and separated on SDS-PAGE and was subjected to Western blot analysis with the indicated antibodies. Numbers represent ratio of p-p38/total p38 normalized to that of pBABE (arbitrarily set at 1)±SD (n=2). (B) MCF-10A cells described in (A) were transduced by H-RAS^V12 and after selection cells were lysed and subjected to Western blot analysis with the indicated antibodies. Numbers representing ratio of p-p38/total p38 were calculated as described in (A) (n=2). (C) Immortal MEFs from Mnk2^−/− mouse were transduced with retrovirus encoding either no mammalian protein (pBABE) or various Mnk2 variants. […] (D) Immortal MEFs from WT, Mnk1^−/− or Mnk2^−/− mice were lysed and analyzed as in (A). (E) Immortal MEFs described in (D) were seeded in 6-well plates. […]
# (A) Cell lines from breast immortal or cancer (MCF-7, MDA-MB-231, SUM-149, SUM-159, MDA-MB-468) cell lines were seeded in 6-well plates and 24 h later were lysed and subjected to Western blot analysis with the indicated antibodies. (B-C) Quantitation of p38 and eIF4E phosphorylation levels. […] (G) MCF-10A cells were seeded in 6-well plates, treated and analyzed as in (D). […]
# Mnk1/2 [2] = experiment: Western blot of p38-MAPK phosphorylation in MCF-10A cells treated with Mnk1/2 kinase inhibitor; format: cell-based, human; details: CGP 57380 for 4 h, FIG. 8G
# Experimental: (A) Cell lines from breast immortal or cancer (MCF-7, MDA-MB-231, SUM-149, SUM-159, MDA-MB-468) cell lines were seeded in 6-well plates and 24 h later were lysed and subjected to Western blot analysis with the indicated antibodies. (B-C) Quantitation of p38 and eIF4E phosphorylation levels. The level of phosphorylated p38 and eIF4E was normalized to that of their total level. Results are presented as an average±SD (n=2). (D-F) Immortal MEFs from WT (Mnk 1/2 WT), Mnk1^−/− or Mnk2^−/− mice were seeded in 6-well plates. 24 h later cells were either treated with the vehicle (DMSO) or treated with the Mnk1/2 kinase inhibitor, CGP 57380 (CGP) at the indicated concentrations for 4 h, and subjected to Western blot analysis with the indicated antibodies. (G) MCF-10A cells were seeded in 6-well plates, treated and analyzed as in (D). […] C-myc (nuclear) and caspase-2 (cytoplasmic) served as fractionation controls.
# Mnk1/2 [3] = experiment: Q-RT-PCR of p38α target genes FOS and COX-2 in MCF-10A cells; format: cell-based, human; details: serum starved, CGP 57380 for 8-10 h, FIG. 7E
# Experimental: (C). RNA from WT MEFs, Mnk2^−/− MEFS and Mnk2^−/− MEFS transduced with Mnk2a was extracted and the levels of FOS and COX-2 were analyzed by Q-RT-PCR. (D). RNA from MCF-10A cells transduced with the indicated Mnk2 isoforms and the indicated Mnk2a mutants was extracted and the levels of FOS and COX-2 were measured as described above. (E). MCF-10A cells were seeded in 10 cm plates. 24 h later, cells were serum starved for an additional 24 h, then treated with Mnk1/2 inhibitor CGP 57380 at the indicated concentrations for 8-10 h. RNA from cells was extracted and the levels of p38α-targets genes; FOS and COX-2 were measured by Q-RT-PCR as described above. (F). MCF-10A cells described in (D) were serum starved for 24 h and then treated with 0.5 μM anisomycin for 24 h and were subjected to trypan-blue exclusion assay (Graph). Bottom panel: cells described in (F) were centrifuged and lysed with Laemmli buffer and proteins were subjected to Western blot analysis. […]
# Q-RT-PCR: Total RNA was extracted with Tri reagent (Sigma) and 2 μg of total RNA was reverse transcribed using the AffinityScript (Stratagene) reverse transcriptase. The mRNA levels of FOS, and COX-2 were determined in MCF-10A breast cell lines by performing quantitative PCR with SYBER Green (SYBR® Premix Ex Taq™ # RR041A) using the CFX96 (Bio-Rad) machine. […]
# Panc-1 cells = experiment: Anisomycin-induced cell death of Panc-1 cells expressing Mnk2a, with or without p38 inhibitor; format: cell-based, human; details: Panc-1, 0.5 μM anisomycin, 20 μM SB203580, FIG. 5J
# Experimental: After selection with hygromycin transductants were maintained in growth factor-free medium in suspension for 48 h. Cell death was measured using the trypan blue exclusion assay. (J) Human pancreatic cancer cells Panc-1 were seeded on 96-well plates (6000 cells/well). Following starvation cells were treated with 0.5 μM anisomycin in the presence or absence of 20 μM SB203580. (*, **p≦0.01). (K) MCF-10A cells were transduced as in (I). After selection cells were seeded in 6-well plates. 24 h later cells were serum starved in a growth factor-free medium for 24 h. Following starvation cells were treated with 0.5 M Sorbitol (to induce osmotic shock) and 24 h later were stained with trypan blue (n=2). (L) MCF-10A transduced with the indicated retroviruses encoding for shRNAs against Mnk2a were seeded as in (K). (*, p≦0.01, ** p≦0.05). […] 10 days post selection with hygromycin cells were assessed for colony formation with methylene blue staining. n=3. […]
# Survival and apoptosis assays: MCF-10A or Panc-1 cells were transduced with the indicated retroviruses. […] Cells were fixed and stained with methylene blue and the absorbance at 650 nm of the acid-extracted stain was measured on a plate reader (BioRad) and was normalized to cell absorbance at “Time 0”. […] 10 μl of the cell suspension was mixed with 10 μl of 4% trypan blue solution and live/dead cells were counted in Bio-Rad TC-10 Automated Cell Counter. […]
# MCF-10A cells [4] = experiment: Cell death induced by constitutively active p38α in MCF-10A cells expressing Mnk2a; format: cell-based, human; details: 20 μM SB203580 for 48 hours, FIGS. 4A-B
# From the text: (§1) (C-D). […] (*, **, ***p≦0.01n=3).
# MCF-10A cells [5] = experiment: Soft agar colony formation of MCF-10A cells co-transduced with Mnk2a and oncogenic Ras; format: cell-based, human; details: H-RAS V12, colonies counted 14 days later, FIGS. 4F-G
# Experimental: as §1
# Anchorage-independent growth: Colony formation in soft agar was assayed as described previously (17). Plates were incubated at 37° C. and 5% CO2. After 10-18 days, colonies were counted from ten different fields in each of two wells for each transductant pool and the average number of colonies per well was calculated. The colonies were stained and photographed under a light microscope at 100× magnification.
# p38 = details: MCF-10A, 1 μM anisomycin, 10 μM SB203580, FIG. 4E
# Experimental: (E) MCF-10A cells transduced with retroviruses containing the indicated Mnk2 isoforms or a kinase dead version of Mnk2a (Mnk2aKD) or with isoform specific shRNAs against Mnk2a were treated with 1 μM anisomycin, in the presence or absence of 10 μM SB203580. Cells were lysed and proteins were subjected to Western blot analysis with the indicated antibodies.
# Immunoblotting: Cells were lysed in Laemmli buffer and analyzed for total protein concentration as described previously (17). 30 μg of total protein from each cell lysate was separated by SDS-PAGE and transferred to a nitrocellulose membrane. The membranes were blocked, probed with antibodies and detected using enhanced chemiluminescence. Primary antibodies were anti phospho-eIF4E Ser209 (1:1000), eIF4E (1:1000), phospho-p38 (Thr180/Tyr182) (1:1000), phospho-MNK (T197/T202) (1:1000), phospho-MK2 (1:1,000), MK2 (1:1,000), (Cell Signaling Technology). […] Secondary antibodies were HRP-conjugated goat anti-mouse, goat anti-rabbit or donkey anti-goat IgG (H+L) (1:10,000, Jackson Laboratories).
# [6] = test system: Ras-transformed MCF-10A breast cells; experiment: Colony survival of Ras-transformed MCF-10A cells after PNA incubation; format: cell-based, human; details: 0.05 μM PNA for 5 hours, seeded 20 cells/well, colonies counted 14 days later, versus scrambled PNA
# Experimental: (§2) FIGS. 36A-C. […] Ras-transformed MCF-10A cells were incubated for 5 hours with 0.05 μM scrambled (non-specific) PNA or MNK2a specific PNA (see the position of the PNA marked in red in the scheme). 24 h later cells were counted and seeded in low density (20 cells/well) in 6-well plates. 14 days later, surviving colonies were counted and photographed.
# Mnk2 splicing = experiment: RT-PCR of Mnk2 splicing after PNA treatment; format: cell-based, human; details: Ras-transformed MCF-10A cells, FIG. 36C
# Experimental: as §2
# RT-PCR: Total RNA was extracted with Tri reagent (Sigma) and 2 μg of total RNA was reverse transcribed using the AffinityScript (Stratagene) reverse transcriptase. PCR was performed on 1/10 (2 μl) of the cDNA, in 50 μl reactions containing 0.2 mM dNTP mix, 10×PCR buffer with 15 mM MgCl2 (ABI), 2.5 units of TaqGold (ABI) and 0.2 […]; 5% (v/v) DMSO was included in some reactions. PCR conditions were 95° C. for 5 min, then 33 cycles of 94° C. for 30 s, 57° C. for 30 s and 72° C. for 45 s, followed by 10 min at 72° C. PCR products were separated on 1.5% or 2% agarose gels. Primers are listed herein below.
molecule,measurement,setting,value
Nc1ncnc2n[nH]c(Nc3ccc(F)cc3)c12 [CGP 57380],p38 phosphorylation in Mnk2-/- MEFs,"Mnk1/2 [1]; Mnk2-/- MEFs, FIG. 8D-F",could not be further reduced
same,"p38-MAPK phosphorylation (T180, Y182) in WT and Mnk1-/- MEFs",Mnk1/2 [1]; WT and Mnk1-/- MEFs,reduced p38-MAPK phosphorylation
same,p38-MAPK phosphorylation in MCF-10A cells,Mnk1/2 [2],reduced p38-MAPK phosphorylation
same,"expression of p38-MAPK target genes (FOS, COX-2)",Mnk1/2 [3],reduced the expression p38-MAPK target genes
C[S+]([O-])c1ccc(-c2nc(-c3ccncc3)c(-c3ccc(F)cc3)[nH]2)cc1 (stereo not shown) [SB203580],anisomycin-induced cell death of cells expressing Mnk2a,Panc-1 cells,partially rescued; also recorded: rescued Panc-1 cells from Mnk2a-induced sensitivity to anisomycin treatment
same,cell death upon active p38-MAPK transduction in cells expressing Mnk2a,MCF-10A cells [4],inhibited by SB203580
same,colony formation in soft agar of cells co-transduced with Mnk2a and Ras,MCF-10A cells [5],rescued the ability of cells co-transduced with Mnk2a and Ras to form colonies in soft agar
same,p38 activity measured by phosphorylation of its substrate MK-2,p38,efficiently inhibited p38 activity
"PNA: PNA based molecule hybridizing to the bridging region between exon 14b and the preceding intron, preventing Mnk2b generation; likely SEQ ID NO: 157 (AGACTTCCACCCTGTCAG; PNA modified oligonucleotide, pattern not given here)",survival of Ras-transformed MCF-10A breast cells (surviving colonies),[6],reduces survival; also recorded: decreased the survival
same,Mnk2 splicing (Mnk2a level) by RT-PCR,Mnk2 splicing,can modulate Mnk2 splicing to elevate Mnk2a
